Reference: patent US5696263A, “Antiviral acyclic phosphonomethoxyalkylsubstituted alkenyl and alkynyl purine and pyrimidine derivatives” (Institute of Organic Chemistry and Biochemistry of the …, priority 1994, dated 1997)
Read-outs that look alike come from different tables or passages of the source. Each block holds one compound with its values, some of them ahead of it.

What was measured:
[1] = tested on: human immunodeficiency virus (HIV RF strain) in CEM-SS cells; assay: XTT assay, anti-HIV RF activity in infected CEM-SS cells, six days post infection; type: cell-based; conditions: for SI (Selectivity Index: Ratio of TD50 to ED50): HIV RF; for SI (Selectivity Index: Ratio of TD50 to ED50) / EC50: CEM-SS cells; for EC50: Human immunodeficiency virus 1, CEM-SS, 144 h, HIV RF strain, XTT assay, six days post infection, read-out: ED50 (the source's name); for anti-HIV potency and selectivity as compared to the other compounds: data in Table 1; for cell protection against HIV: over a broad concentration range
Protocol: (§1) Compounds were evaluated for activity against human immunodeficiency virus (HIV RF strain obtained from Luc Montagnier, Institut Pasteur, Paris, France) in CEM-SS cells (P. L. Nara, et al., in AIDS Res. Human. Retroviruses, 1987, 3, 283-302) using the XTT assay described by O. S. Weislow, et al., in J. Natl. Cancer Instit., 1989, 81, 577-586. CEM-SS cells were obtained from Owen Weislow at the National Cancer Institute. Cells were exposed to HIV and cultured in microtiter plates in the presence of test compounds at concentrations of 0.32, 1, 3.16, 10, 31.6, 100, 316 and 1000 um. On day six post-infection, the antiviral effect was measured using the XTT assay in which an optical density (OD) reading is obtained at each drug concentration. The optical density reading is proportional to the number of viable cells. The relative optical density values were derived by dividing the sample observed optical density by the value obtained for the control. Assays run in infected cells show the antiviral effect of the test compounds, where an increase in the number of viable cells (higher OD reading) reflects the protective, antiviral activity of the compound. Assays run in uninfected cells provide a measure of cellular toxicity.
(§2) The antiviral effect is also expressed (see Table 1) as the concentration of compound which increases the number of viable cells in infected cultures to 50%, to that of the untreated, uninfected control cultures (ED50). The cellular toxicity is expressed as the concentration of compound which reduces the number of viable cells to 50%, to that of the untreated control (TD50). The selectivity index (SI) is the ratio of TD50 to ED50.
(§3) The anti-HIV activity and cellular toxicity of the test compounds are plotted in FIGS. 1-7 as a function of relative optical density versus increasing log concentrations of the test compounds (XTT assay). FIGS. 1-7 visually show the results of the relative anti-HIV activity of the test compounds on infected cells (--.circle-solid.--) and the cellular toxicity of the same test compound on uninfected cells (--.rect-solid.--).
Another estimate of the effectiveness of a compound for use against HIV in the prevention and/or treatment of AIDS is a selectivity index (an in vitro "therapeutic index"), the ratio of the toxic dose 50 to the effective dose 50. The selectivity index (SI) for (RS), (R)- and (S)-2'-vinyl-PMEG and (RS), (R), (S), -2'-azidomethyl-PMEG of the instant invention and for the comparison compound PMEG are shown in Table 1.
Anti-HIV RF Activity in CEM-Cells Evaluated by XTT Assay
Six Days Post Infection
(§4) ^a Effective Dose 50: In infected cells, concentration of compound
(§5) which results in an increase in the number of viable cells to 50% to that
^c Selectivity Index: Ratio of TD50 to ED50.

[2] = XTT assay, cellular toxicity in uninfected CEM-SS cells; type: cell-based; conditions: human, cem-ss cells
Protocol: as §1, §2, §3
(§6) ^b Toxic Dose 50: In uninfected cells, concentration of compound whic
(§7) results in a 50% decrease of viable cells.

[3] = tested on: CEM-SS cells; assay: cell growth inhibition assay in CEM-SS cells; type: cell-based; conditions: values of Table 2
Protocol: (§8) The cytotoxicity of PMEG, (R)2'-vinyl-PMEG, (S)-2'-vinyl-PMEG and (R)-2'-azidomethyl-PMEG was also determined by the cell growth inhibition assay in CEM-SS cells.
(§9) *CC50 is the concentration of drug that causes a 50 percent decrease in
(§10) cell count as compared to the control at day three (72 hours).
(§11) 1. Choose proper range of the concentrations of the drug to be evaluated.
(§12) 2. Prepare the stock solutions of drugs in RPMI 1640 medium at 10× of the highest concentration needed in cell culture
(§13) 3. Make serial dilution of the 10× stock solutions with RPMI 1640 as needed, usually four different concentrations are used for each drug.
(§14) 4. Prepare CEM cell suspension at @5×10^4 cells/ml concentration
(§15) 5. To each 18 ml CEM cell suspension add 2 ml of properly diluted drug solution (from step 2 and 3) separately and mix well.
(§16) 6. For cell control, 2 ml of RPMI 1640 is added in place of the drug solutions.
(§17) 7. Two ml of the solutions from step 5 and 6 are dispensed in to the wells of 24-well plate as shown in the following diagram [drawing 14] 8. At time zero, cells in 4 wells from the control (no drug added) are counted
(§18) 9. At 24, 48, 72 and 96 hr post drug addition, both drug treated and control cells are counted
(§19) 10. All assay are done in duplicate, two 24-well plates are set up for each drug
(§20) 11. Cell counts obtained from drug treated cultures are compared to those from control cultures.
(§21) 12. The concentration of drug that causes a 50 percent of decrease of cell number as compared to the control at day three (72 hr) is assigned as the CC50 value of the drug.

[4] = cell growth inhibition assay in CEM-SS cells; type: cell-based; conditions: human, cem-ss cells; 50 percent decrease in cell count vs control at day three (72 hours)
Protocol: as §8, §9, §10, §11, §12, §13, §14, §15, §16, §17, §18, §19, §20, §21

[5] = tested on: CEM-SS cells; assay: XTT assay, cellular toxicity in uninfected CEM-SS cells; type: cell-based
Protocol: as §1, §2, §3, §6, §7

[6] = tested on: human immunodeficiency virus LA BRU strain; assay: XTT assay, anti-HIV activity with LAV BRU strain; type: cell-based; conditions: HIV LAV BRU strain (footnote e), read-out: ED50 (the source's name)
Protocol: as §1, §2, §4, §5
^e The compounds were evaluated using human immunodeficiency virus LA
BRU strain obtained from Luc Montagnier, Institut Pasteur, Paris, France.

[7] = tested on: CEM-SS cells; assay: XTT assay, cellular toxicity in uninfected CEM-SS cells; type: cell-based; conditions: compounds evaluated with HIV LAV BRU strain (footnote e), 8640 min, read-out: TD50 (the source's name)
[8] = tested on: MT2 cells; assay: cellular toxicity in uninfected MT2 cells (Southern Research Institute); type: cell-based; conditions: Southern Research Institute (footnote g), read-out: TD50 (the source's name)
Protocol: as §6, §7
(§22) ^g The compound was evaluated by Southern Research Institute using
(§23) human immunodeficiency virus HTLVIIIB strain and MT2 cells (S. Harada, et

[9] = tested on: human immunodeficiency virus HTLVIIIB strain and MT2 cells; assay: anti-HIV activity, HTLVIIIB strain in MT2 cells (Southern Research Institute); type: cell-based; conditions: Southern Research Institute (footnote g), read-out: ED50 (the source's name)
Protocol: as §4, §5, §22, §23

[10] = tested on: Moloney sarcoma virus; conditions: experimental animals; cited from earlier work
[11] = tested on: HIV; conditions: in tissue cultures; cited from earlier work
[12] = tested on: murine leukemia virus; conditions: experimental animals; cited from earlier work
[13] = tested on: simian immunodeficiency virus (SIV); conditions: experimental animals; cited from earlier work

- EC50 [1]: 8 µM
Compound: [N-]=[N+]=NCC(Cn1cnc2c(=O)[nH]c(N)nc21)OCP(=O)(O)O (racemic) [(R,S)-2'-azidomethyl-PMEG, (RS)-9-[3-azido-2-(phosphonomethoxy)propyl]guanine]
- SI (Selectivity Index: Ratio of TD50 to ED50) [1]: > 125
- CC50 at 144 h [2]: > 1000 µM

- EC50 [1]: 19.6 µM
Compound: C=CC(Cn1cnc2c(=O)[nH]c(N)nc21)OCP(=O)(O)O (racemic) [(R,S)-2'vinyl-PMEG, (RS)-9-[2-(phosphonomethoxy)-3-butenyl]guanine]
- SI (Selectivity Index: Ratio of TD50 to ED50) [1]: > 51
- CC50 at 144 h [2]: > 1000 µM

- EC50 [1]: 5 µM
Compound: [N-]=[N+]=NC[C@@H](Cn1cnc2c(O)nc(N)nc21)OCP(=O)(O)O [(R)-2'-azidomethyl-PMEG, (R)-9-[3-azido-2-(phosphonomethoxy)propyl]guanine]
- SI (Selectivity Index: Ratio of TD50 to ED50) [1]: > 200
- anti-HIV potency and selectivity as compared to the other compounds [1]: potent and selective anti-HIV agents
- cell protection against HIV [1]: cell protection against HIV over a broad concentration
- toxicity in CEM-SS cells when compared to PMEG [3]: relatively non-toxic
- CC50 at 72 h [4]: 1400 µM
- observable cytotoxicity [5]: no observable cytotoxicity
- CC50 at 144 h [2]: > 1000 µM

Compound: C=C[C@H](Cn1cnc2c(O)nc(N)nc21)OCP(=O)(O)O [(R)-2'-vinyl-PMEG, (R)-9-[2-(phosphonomethoxy)-3-butenyl]guanine]
- protection from the human immunodeficiency virus in CEM-SS cells ([1]; concentration range of 5 to 100 μM, FIG. 1): complete protection
- anti-HIV potency and selectivity as compared to the other compounds [1]: potent and selective anti-HIV agents
- cell protection against HIV [1]: cell protection against HIV over a broad concentration
- toxicity in CEM-SS cells when compared to PMEG [3]: relatively non-toxic
- CC50 at 72 h [4]: 1600 µM
- observable cytotoxicity [5]: no observable cytotoxicity
- CC50 at 144 h [2]: > 1000 µM

Compound: [N-]=[N+]=NCC[C@@H](Cn1ccc(N)nc1=O)OCP(=O)(O)O [(S)-2'-azidoethyl-PMEC, (S)-9-[4-azido-2-(phosphonomethoxy)butyl]cytosine]
- EC50 ([6]; 8640 min): > 500 µM
- CC50 [7]: > 500 µM

- EC50 ([6]; Human immunodeficiency virus 1, CEM-SS, 144 h): > 500 µM
Compound: [N-]=[N+]=NCC[C@@H](Cn1cnc2c(O)nc(N)nc21)OCP(=O)(O)O [(S)-2'-azidoethyl-PMEG, (S)-9-[4-azido-2-(phosphonomethoxy)butyl]guanine]
- CC50 at 144 h [2]: > 500 µM

Compound: [N-]=[N+]=NC[C@H](Cn1ccc(N)nc1=O)OCP(=O)(O)O [(S)-2'-azidomethyl-PMEC, (S)-9-[3-azido-2-(phosphonomethoxy)propyl]cytosine]
- EC50 ([6]; 8640 min): > 500 µM
- CC50 [7]: > 500 µM

- EC50 [1]: 51 µM
Compound: [N-]=[N+]=NC[C@H](Cn1cnc2c(=O)[nH]c(N)nc21)OCP(=O)(O)O [(S)-2'-azidomethyl-PMEG, (S)-9-[3-azido-2-(phosphonomethoxy)propyl]guanine]
- SI (Selectivity Index: Ratio of TD50 to ED50) [1]: > 20
- CC50 at 144 h [2]: > 1000 µM

Compound: Cc1cn(C[C@@H](CN=[N+]=[N-])OCP(=O)(O)O)c(=O)[nH]c1=O [(S)-2'-azidomethyl-PMET, (S)-9-[3-azido-2-(phosphonomethoxy)propyl]thymine]
- CC50 [8]: > 500 µM
- EC50 [9]: > 500 µM

Compound: C=C[C@@H](Cn1ccc(N)nc1=O)OCP(=O)(O)O [(S)-2'-vinyl-PMEC, (S)-9-[2-(phosphonomethoxy)-3-butenyl]cytosine]
- EC50 ([6]; 8640 min): > 500 µM
- CC50 [7]: > 500 µM

Compound: C=C[C@@H](Cn1cnc2c(O)nc(N)nc21)OCP(=O)(O)O [(S)-2'-vinyl-PMEG, (S)-9-[2-(phosphonomethoxy)-3-butenyl]guanine]
- protection from HIV in CEM-SS cells ([1]; at 100 μM, FIG. 2): complete protection
- toxicity in CEM-SS cells when compared to PMEG [3]: relatively non-toxic
- CC50 at 72 h [4]: 1600 µM

Compound: Nc1ncnc2c1ncn2CCOCP(=O)(O)O [PMEA]
- effect on Moloney sarcoma virus [10]: proven its effect
- effect on HIV [11]: proven its effect
- effect on murine leukemia virus [12]: proven its effect
- effect on simian immunodeficiency virus (SIV) [13]: proven its effect

- EC50 [1]: 0.2 µM
Compound: Nc1nc2c(ncn2CCOCP(=O)(O)O)c(=O)[nH]1 [PMEG, 9-[2-(phosphonomethoxy)ethyl]guanine, reference compound]
- anti-HIV effect in CEM-SS cells ([1]; FIG. 7): some anti-HIV effect
- SI (Selectivity Index: Ratio of TD50 to ED50) [1]: 30
- CC50 at 72 h [4]: 2.4 µM
- cellular toxicity [5]: cellular toxicity of PMEG prevents protection from the virus
- CC50 at 144 h [2]: 15 µM
